Assay [1] relates to HMEC. In words: Cell death induced by inhibitors of endogenous H2S synthesis (AOAA, PAG). It counts as cell-based, human. The note with it: GYY4137 100 μM, FIGS. 5-7, p<0.001. From the text: In the data shown in FIGS. 5 to 7, ###=p<0.001 compared to the control; ***=p<0.001 compared to inhibitors.
Assay [2] concerns HMEC. In words: Mitochondrial membrane potential (ΔΨm), tetramethylrhodamine methyl ester. It counts as cell-based, human. The note with it: H2O2, SIN-1 or 4-HNE; GYY4137 100 μM, FIG. 13. Here is the method:
HMEC were incubated with H2S donor compounds for 5 hrs followed by the addition of oxidants SIN-1 (500 μM), H2O2 (50 μM) or […] (10 μM) for 24 hrs. After this time the mitochondria-specific potentiometric dye tetramethylrhodamine methyl ester (200 nM) was added and fluorescence was determined using a Gemini M2e microplate reader (excitation wavelength 548 nm, emission wavelength 573 nm). The method was performed in accordance with the method described by M. Whiteman et al (FASEB J, 2004, 18, 1395-1397).

Assay [3] has as its system HMEC. In words: Intracellular oxidative stress measurements (DCFDA assay). It counts as cell-based, human. On the procedure:
HMEC were incubated with H2S donor compounds for 5 hrs then H2O2, […] or SIN-1 were added for 2 hrs. Intracellular oxidative stress was then assessed using dichlorofluorescein diacetate (added at a final concentration of 10 μM) and fluorescence detected using a Gemini M2e microplate reader at 37° C. (excitation wavelength, 488 nm, emission wavelength 525 nm). The method was performed in accordance with the method described by M. Whiteman et al (Meths. Mol. Biol., 2008, 476, 29-50).

For assay [4], the system named is HMEC. In words: Mitochondrial oxidative stress measurements (MitoSox Red). It counts as cell-based, human. The note with it: GYY4137 100 μM. Here is the method:
HMEC were incubated with H2S donor compounds for 5 hrs then the oxidants H2O2, SIN-1 or […] added for 2 hrs. We used a mitochondria-selective oxidant probe MitoSox Red (final concentration, 5 μM) to detect mitochondria-derived oxidant species by fluorescence using a Gemini M2e microplate reader (excitation wavelength 510 nm, emission wavelength, 580 nm). The method was performed in accordance with the method described by M. Whiteman et al (Meths. Mol. Biol., 2008, 476, 29-50) and R. A. Quintanilla et al (J Biol Chem., 2008, 284, 18754-18766).

Another assay deals with cancer. The note with it: in vitro and in vivo; cited from earlier work.
The subject of assay [5] is anaesthetised Wistar rats. The assay can be described thus: Blood pressure, heart rate and breathing rate of anaesthetised Wistar rats. In kind it is in vivo, rat. The note with it: anaesthetised Wistar rats, 3 μM/kg Na2S injected, FIG. 20. Here is the method: The mean arterial blood pressure (MAP) of anaesthetised Wistar rats was measured by a pressure transducer in the carotid artery. In ex vivo experiments, effects of AP39 were studied on noradrenaline precontracted rat aortic rings (see below). The single channel properties of intracellular chloride channels from rat heart were studied using the bilayer lipid membrane method (see below).
(§1) The catheter was inserted into the right jugular vein of male wistar rats or male spontaneously hypertensive (SHR) rats so as to reach the right atrium. Anesthesia (ZOLELIT, VIRBAC, 40 mg/kg to leg) and Xylazine 2%. AP39 solutions were prepared in 4 μl DMSO then mixed with 100 μl Krebs solution and immediately applied for 10 sec. (FIGS. 20, 21 and 22).
(§2) Blood pressure, heart rate and breathing rate were all measured at the same time, in accordance with Ling et al., 2008 Circulation 117 2351-2360.

Assay [6] has as its system spontaneously hypertensive (SHR) rats. In words: Blood pressure, heart rate and breathing rate of anaesthetised SHR rats. In kind it is in vivo, rat. The note with it: Wistar or SHR rats, Na2S, summary statement, dose not given. On the procedure:
as §1, §2

Entries after “also recorded” stand apart in the source; their conditions may differ.

As to “morpholin-4-ium 4-methoxyphenyl(morpholino) phosphinodithioate [GYY4137, reference compound]”, the “AOAA, PAG and AOAA/PAG induced cell death” value with HMEC [1] is “significantly inhibited”. The “oxidant-induced mitochondrial membrane potential (Δψm) collapse” value in the assay with HMEC [2] was “inhibition”. Also, the “4-HNE-derived intracellular oxidant species (DCFDA assay)” value with HMEC [3] (GYY4137 100 μM, FIGS. 14 and 15) was “significantly reduced; also recorded: significantly decreased”. For the same molecule, the “time dependent increase in intracellular oxidative stress (DCFDA assay)” value with HMEC [3] (pretreatment with GYY4137 100 μM, FIG. 15) was “reduced”. In the assay with HMEC [4] (4-HNE 10 μM, FIG. 16), the “mitochondrial superoxide formation induced by 4-HNE (MitoSOX red)” value is “reduced”. Moreover, in the assay with HMEC [4] (H2O2 50 μM, FIG. 17), the “mitochondrial superoxide formation induced by H2O2 (MitoSOX red)” value is given as “reduced”. For the same molecule, the anti-cancer effects entry with cancer was “anti-cancer effects”.
Take `[Na+].[Na+].[S-2]` [Na2S, reference compound]: in assay [5], the blood pressure entry is reported as “no effect; also recorded: not observed”, the breathing rate entry is listed as “no effect” and the heart rate result is “no effect; also recorded: not observed”. For the same molecule, in assay [6], the blood pressure entry is given as “did not reduce blood pressure” and the heart rate result is “did not decrease heart rate”.

The record behind these values is patent US10058100B2, “Hydrogen sulfide releasing compounds and their use” (THE UNIVERSITY OF EXETER, priority 2011, dated 2018).
